Data published in patent US20090030024A1, “THIAZOLES AS FUNGICIDES” (priority 2005, published 2009).
Marks after values point to notes of the source that are not given here.

Assay: logP determination by retention times (calibration with alkan-2-ones)
Settings: not given
For `Cc1cc(Nc2nccc(-c3sc(N)nc3C)n2)ccc1F` [Example 207, 4-(2-amino-4-methyl-1,3-thiazol-5-yl)-N-(4-fluoro-3-methylphenyl)pyrimidine-2-amine], the chromatographic logP was 1.68. Compound `CSc1nc(C)c(-c2ccnc(Nc3ccc(C(F)(F)F)cc3)n2)s1` [Example 317, 4-[4-methyl-2-(methylthio)-1,3-thiazol-5-yl]-N-[4-(trifluoromethyl)phenyl]pyrimidine-2-amine] has a chromatographic logP of 4.37. Compound `Cc1nc(C(F)(F)F)c(-c2ccnc(Nc3cccc(O)c3)n2)s1` [Example 103, 3-({4-[2-methyl-4-(trifluoromethyl)-1,3-thiazol-5-yl]pyrimidin-2-yl}amino)phenol] has a chromatographic logP of 2.52. In the case of `Cc1nc(N)sc1-c1ccnc(Nc2ccc(O)cc2)n1` [Example 323, 4-{[4-(2-amino-4-methyl-1,3-thiazol-5-yl)pyrimidin-2-yl]amino}phenol], the chromatographic logP is reported as 0.93. `Cc1nc(N)sc1-c1ccnc(Nc2cccc(C(F)(F)F)c2)n1` [Example 209, 4-(2-amino-4-methyl-1,3-thiazol-5-yl)-N-[3-(trifluoromethyl)phenyl]pyrimidine-2-amine] showed a chromatographic logP of 1.97. In the case of `Cc1nc(C(F)(F)F)c(-c2ccnc(Nc3cccc([N+](=O)[O-])c3)n2)s1` [Example 311, 4-[2-methyl-4-(trifluoromethyl)-1,3-thiazol-5-yl]-N-(3-nitrophenyl)pyrimidine-2-amine], the chromatographic logP is reported as 3.5. Work on `Cc1nc(C)c(-c2ccnc(Nc3cccc([N+](=O)[O-])c3)n2)s1` [Example 184, 4-(2,4-dimethyl-1,3-thiazol-5-yl)-N-(3-nitrophenyl)pyrimidine-2-amine] yielded a chromatographic logP of 2.61. Work on `COCc1nc(C)c(-c2ccnc(Nc3cccc(OC)c3)n2)s1` [Example 296, 4-[2-(methoxymethyl)-4-methyl-1,3-thiazol-5-yl]-N-(3-methoxyphenyl)pyrimidine-2-amine] yielded a chromatographic logP of 2.67. `Cc1nc(C(C)C)sc1-c1ccnc(Nc2cccc(C(F)(F)F)c2)n1` [Example 248, 4-(2-isopropyl-4-methyl-1,3-thiazol-5-yl)-N-[3-(trifluoromethyl)phenyl]pyrimidine-2-amine] showed a chromatographic logP of 4.3.

Same assay, conditions: * HPLC reversed-phase C18, 40° C., mobile phase 0.1% aqueous formic acid and acetonitrile, linear gradient 10% to 95% acetonitrile
With `COc1ccc(Nc2nccc(-c3sc(N(C)C)nc3C)n2)cn1` [Example 785, 4-[2-(dimethylamine)-4-methyl-1,3-thiazol-5-yl]-N-(6-methoxypyridin-3-yl)pyrimidine-2-amine] the logP was 1.55*. For `CN(C)c1nc(C(F)(F)F)c(-c2ccnc(Nc3ccc4c(c3)OC(F)(F)C(F)(F)O4)n2)s1` [Example 780, 4-[2-(dimethylamine)-4-(trifluoromethyl)-1,3-thiazol-5-yl]-N-(2,2,3,3-tetrafluoro-2,3-dihydro-1,4-benzodioxin-6-yl)pyrimidine-2-amine], the logP was 5.28*. For `Cc1nc(N(C)C)sc1-c1ccnc(Nc2cccc([N+](=O)[O-])c2)n1` [Example 686, 4-[2-(dimethylamine)-4-methyl-1,3-thiazol-5-yl]-N-(3-nitrophenyl)pyrimidine-2-amine], the logP was 2.34*. In the case of `CN(C)c1nc(C(F)(F)F)c(-c2ccnc(Nc3ccc(N4CCCC4=O)cc3)n2)s1` [Example 770, 1-[4-({4-[2-(dimethylamine)-4-(trifluoromethyl)-1,3-thiazol-5-yl]pyrimidin-2-yl}amino)phenyl]pyrrolidin-2-one], the logP is reported as 2.99*. For `CNc1nc(C)c(-c2ccnc(Nc3ccc(OC(C)=O)cc3)n2)s1` [Example 754, 4-({4-[4-methyl-2-(methylamine)-1,3-thiazol-5-yl]pyrimidin-2-yl}amino)phenylacetate], the logP was 1.73*.

Same assay, conditions: HPLC, reversed-phase C 18, EEC Directive 79/831 Annex V.A8; method *: 40° C., 0.1% aqueous formic acid and acetonitrile, linear gradient 10% to 95% acetonitrile
In the case of `CC(=O)c1cccc(Nc2nccc(-c3sc(N(C)C)nc3C(F)(F)F)n2)c1` [Example 23, 1-[3-({4-[2-(dimethylamine)-4-(trifluoromethyl)-1,3-thiazol-5-yl]pyrimidin-2-yl}amino)phenyl]ethanone], the logP is reported as 1.91*.

Same assay, conditions: logP, * HPLC reversed-phase C18, 40° C., mobile phase 0.1% aqueous formic acid and acetonitrile, linear gradient 10% to 95% acetonitrile
In the case of `COc1cc(Nc2nccc(-c3sc(C)nc3C(F)(F)F)n2)cc(OC)c1` [Example 706, N-(3,5-dimethoxyphenyl)-4-[2-methyl-4-(trifluoromethyl)-1,3-thiazol-5-yl]pyrimidine-2-amine], the chromatographic logP is reported as 3.41. Work on `Cc1nc(C2CC2)sc1-c1ccnc(Nc2ccc(N(C)C)cc2)n1` [Example 555, N′-[4-(2-cyclopropyl-4-methyl-1,3-thiazol-5-yl)pyrimidin-2-yl]-N,N-dimethylbenzene-1,4-diamine] yielded a chromatographic logP of 1.63. In the case of `COCCNc1nc(C)c(-c2ccnc(Nc3ccc(OC)c(Cl)c3)n2)s1` [Example 804, N-(3-chloro-4-methoxyphenyl)-4-{2-[(2-methoxyethyl)amino]-4-methyl-1,3-thiazol-5-yl}pyrimidine-2-amine], the chromatographic logP is reported as 1.96. With `COCc1nc(C)c(-c2ccnc(Nc3cccc(Cl)c3)n2)s1` [Example 432, N-(3-chlorophenyl)-4-[2-(methoxymethyl)-4-methyl-1,3-thiazol-5-yl]pyrimidine-2-amine] the chromatographic logP was 3.24. For `Cc1nc(C(F)F)c(-c2ccnc(Nc3ccc(CNC(=O)OC(C)(C)C)cc3)n2)s1` [Example 758, tert-butyl-[4-({4-[4-(difluoromethyl)-2-methyl-1,3-thiazol-5-yl]pyrimidin-2-yl}amino)benzyl]carbamate], the chromatographic logP was 3.2. `COCCCNc1nc(C)c(-c2ccnc(Nc3ccccc3)n2)s1` [Example 725, 4-{2-[(3-methoxypropyl)amino]-4-methyl-1,3-thiazol-5-yl}-N-phenylpyrimidine-2-amine] gave a chromatographic logP of 1.81. Compound `Cc1nc(C2CC2)sc1-c1ccnc(Nc2cccc(N(C)C)c2)n1` [Example 554, N′-[4-(2-cyclopropyl-4-methyl-1,3-thiazol-5-yl)pyrimidin-2-yl]-N,N-dimethylbenzene-1,3-diamine] has a chromatographic logP of 2.19. `COCCNc1nc(C)c(-c2ccnc(Nc3ccc(NS(C)(=O)=O)cc3)n2)s1` [Example 691, N-{4-[(4-{2-[(2-methoxyethyl)amino]-4-methyl-1,3-thiazol-5-yl}pyrimidin-2-yl)amino]phenyl}methanesulphonamide] gave a chromatographic logP of 1.39. With `COCCNc1nc(C)c(-c2ccnc(Nc3ccc(NC(C)=O)cc3)n2)s1` [Example 683, N-{4-[(4-{2-[(2-methoxyethyl)amino]-4-methyl-1,3-thiazol-5-yl}pyrimidin-2-yl)amino]phenyl}acetamide] the chromatographic logP was 1.35. Compound `Cc1nc(C(C)C)sc1-c1ccnc(Nc2ccc(Cl)cc2)n1` [Example 464, N-(4-chlorophenyl)-4-(2-isopropyl-4-methyl-1,3-thiazol-5-yl)pyrimidine-2-amine] has a chromatographic logP of 4.25. `COCCNc1nc(C)c(-c2ccnc(Nc3ccc(N4CCCC4=O)cc3)n2)s1` [Example 752, 1-{4-[(4-{2-[(2-methoxyethyl)amino]-4-methyl-1,3-thiazol-5-yl}pyrimidin-2-yl)amino]phenyl}pyrrolidin-2-one] showed a chromatographic logP of 1.51. With `CCc1nc(C)c(-c2ccnc(Nc3cccc(NC(C)=O)c3)n2)s1` [Example 415, N-(3-{[4-(2-ethyl-4-methyl-1,3-thiazol-5-yl)pyrimidin-2-yl]amino}phenyl)acetamide] the chromatographic logP was 2.05. For `Cc1nc(C(C)C)sc1-c1ccnc(Nc2ccc(F)cc2)n1` [Example 485, N-(4-fluorophenyl)-4-(2-isopropyl-4-methyl-1,3-thiazol-5-yl)pyrimidine-2-amine], the chromatographic logP was 3.58. `CSc1nc(C)c(-c2ccnc(Nc3ccc(F)c(C)c3)n2)s1` [Example 481, N-(4-fluoro-3-methylphenyl)-4-[4-methyl-2-(methylthio)-1,3-thiazol-5-yl]pyrimidine-2-amine] showed a chromatographic logP of 3.89.

Same assay, conditions: logP, values marked *: HPLC on reversed-phase C 18, 40° C., mobile phase 0.1% aqueous formic acid and acetonitrile, linear gradient 10% to 95% acetonitrile
For `Cc1nc(C(C)(C)C)sc1-c1ccnc(Nc2cccc(Cl)c2)n1` [Example 884, 4-(2-tert-butyl-4-methyl-1,3-thiazol-5-yl)-N-(3-chlorophenyl)pyrimidine-2-amine], the chromatographic logP was 4.82. In the case of `COCCCNc1nc(C)c(-c2ccnc(Nc3cccc(OC)c3)n2)s1` [Example 852, N-(3-methoxyphenyl)-4-{2-[(3-methoxypropyl)amino]-4-methyl-1,3-thiazol-5-yl}pyrimidine-2-amine], the chromatographic logP is reported as 1.89. For `COCCNc1nc(C)c(-c2ccnc(Nc3ccc(F)c(F)c3)n2)s1` [Example 897, N-(3,4-difluorophenyl)-4-{2-[(2-methoxyethyl)amino]-4-methyl-1,3-thiazol-5-yl}pyrimidine-2-amine], the chromatographic logP was 2.15. `Cc1nc(NCC2CCCO2)sc1-c1ccnc(Nc2ccc(F)cc2F)n1` (centres unmarked) [Example 809, N-(2,4-difluorophenyl)-4-{4-methyl-2-[(tetrahydrofuran-2-ylmethyl)amino]-1,3-thiazol-5-yl}pyrimidine-2-amine] gave a chromatographic logP of 2.09. For `COc1ccc(Nc2nccc(-c3sc(C(C)C)nc3C)n2)cc1` [Example 821, 4-(2-isopropyl-4-methyl-1,3-thiazol-5-yl)-N-(4-methoxyphenyl)pyrimidine-2-amine], the chromatographic logP was 3.25. Compound `CCc1nc(C)c(-c2ccnc(Nc3cccc(N(C)C)c3)n2)s1` [Example 880, N′-[4-(2-ethyl-4-methyl-1,3-thiazol-5-yl)pyrimidin-2-yl]-N,N-dimethylbenzene-1,3-diamine] has a chromatographic logP of 1.99. `COCCOc1nc(C)c(-c2ccnc(Nc3ccc(F)cc3)n2)s1` [Example 899, N-(4-fluorophenyl)-4-[2-(2-methoxyethoxy)-4-methyl-1,3-thiazol-5-yl]pyrimidine-2-amine] gave a chromatographic logP of 3.12. `COCCCNc1nc(C)c(-c2ccnc(Nc3cccc([N+](=O)[O-])c3)n2)s1` [Example 865, 4-{2-[(3-methoxypropyl)amino]-4-methyl-1,3-thiazol-5-yl}-N-(3-nitrophenyl)pyrimidine-2-amine] showed a chromatographic logP of 2.03.

Same assay, conditions: values marked *: HPLC on reversed-phase C 18, 40° C., mobile phase 0.1% aqueous formic acid and acetonitrile, linear gradient 10% to 95% acetonitrile
In the case of `COc1cc(Nc2nccc(-c3sc(N(C)C)nc3C)n2)cc(OC)c1OC` [Example 850, 4-[2-(dimethylamine)-4-methyl-1,3-thiazol-5-yl]-N-(3,4,5-trimethoxyphenyl)pyrimidine-2-amine], the logP is reported as 1.77*.
